{"source": "paper PMC8885659", "about": "“Asymmetric, amphiphilic RGD conjugated phthalocyanine for targeted photodynamic therapy of triple negative breast cancer” (Signal Transduction and Targeted Therapy, 2022)", "key": {"4T1 cells [1]": {"tested_on": "4T1 cells", "assay": "Cytotoxicity assay (CCK8), phototoxicity and dark toxicity", "assay_type": "cell-based, murine", "settings": "for Dark toxicity: cell viability without light: no light, CCK8, n = 5", "protocol": "4T1 cells were seeded in a 96-well plate at a density of 10,000 cells/well, and each well was cultured overnight with 200 μL of DMEM medium containing 10% FBS. On the second day, the original medium was discarded and replaced with DMEM medium containing different concentrations of SC or RSP (containing 0.05% CEL). After 4 h of incubation, the cells were incubated with fresh medium and irradiated with a xenon lamp. Then 10 μL of CCK8 was added to each well, and the incubation continued for 1 h. After the incubation, the absorbance value at 450 nm was measured with enzyme labels (Synergy HT, BioTek, USA). At the same time, a blank control was set to determine cell viability. The dark toxicity test method was similar, except that no light was applied to the cells."}, "4T1 cells [2]": {"tested_on": "4T1 cells", "assay": "Subcellular co-localization with lysosomes (confocal)", "assay_type": "cell-based, murine", "settings": "1 μM, 4 h incubation, Lysotracker, n = 3", "protocol": "Subcellular colocalization pictures were taken under a laser confocal microscope (Nikon A1R high-speed confocal laser microscope, Nikon Corporation, Japan). 4T1 cells were cultured in 35 mm cell culture dishes at a density of 20,000 cells/dish, and cultured overnight. After 24 h, the medium was replaced with DMEM medium (containing 0.05% CEL) containing 1 μM RSP or SC. After 4 h of incubation, the plates were washed with PBS and then stained with DMEM medium containing Lysotracker for 30 min and washed again with PBS. Then fixed and counterstained with DAPI. The light was always avoided during the entire operation. The dynamic change of fluorescence on any straight line passing through the whole cell was analyzed by Image J. The result was plot to qualitatively analyze the co-localization situation of lysosome and phthalocyanine. In order to more completely reflect the co-localization of lysosomes and phthalocyanines, the Pearson co-localization coefficient was analyzed on the fluorescence fields of cells obtained from three photographs, and the difference in lysosomal localization of RSP and SC in the cells was quantitatively analyzed."}, "[3]": {"assay": "Singlet oxygen yield detection with DPBF", "assay_type": "physicochemical", "settings": "physiological saline containing 1% CEL; for Slope of DPBF bleaching (singlet oxygen yield): laser 610 nm, 225 mW/cm^2, DPBF absorbance at 414 nm", "from_the_text": "Generation of singlet oxygen was detected chemically using the disodium salt of 1,3-diphenylisobenzofuran (DPBF) as a singlet oxygen sensor. DPBF is bleached by singlet oxygen to its corresponding endoperoxide. The reaction was monitored spectrophotometrically by recording the decrease in optical density at 414 nm. The bleaching rate of DPBF can also be used as a method to compare the yield of singlet oxygen. In the actual measurement of singlet oxygen yield, a certain amount of DPBF ethanol solution and test solution are mixed together in a dark room. A rotor is added to the cuvette, and the laser is irradiated for different times while stirring. The absorption spectra of the mixed solution was tested after different time of irradiation with an ultraviolet spectrophotometer, then the change of the absorption value of DPBF at 414 nm was obtained."}, "4T1 tumor model": {"tested_on": "4T1 tumor model", "assay": "In vivo photodynamic activity", "design": "species or system Balb/c mice", "settings": "for Tumor volume without light versus PBS and Light groups: no laser", "protocol": "(§1) Balb/c female mice aged 6 to 8 weeks were purchased from Beijing Weitong Lihua Laboratory Animal Technology. All animal experiments were performed under protocols approved by the Institutional Animal Care and Use Committee (IACUC) of Peking University. In situ breast cancer tumor models were established by injecting 2 * 10^7 4T1-luci tumor cells under the fourth pair of mammary glands in mice. Treatment was initiated approximately 6 days after inoculation when the tumor volume grew to approximately 100 mm^3.\n(§2) PDT treatment was performed on the 7th day when the 4T1 tumor model was established in mice, and the average initial tumor volume was 100 mm^3. The test groups were as follows: Group 1: PBS; Group 2: Light; Group 3: SC; Group 4: RSP; Group 5: SC + Light, Group 6: RSP + Light. First, 200 μl of RSP (2 mg/kg), SC (2 mg/kg), and PBS were injected intravenously. 4 h after the injection, the tumor area was irradiated with 671 nm laser (0.1 W/cm^2) for 6 min with a total laser intensity of 36 J/cm^2 and laser treatment was performed on groups 2, 5, and 6. After PDT treatment, the tumor size was measured every day using electronic vernier calipers until 12 days. The maximum width (X) and length (Y) of the tumor were measured, and the following formula was used to calculate the tumor volume: V = (X^2Y)/2. From the first day of treatment, the weight change of each group of mice was recorded until the end of the treatment. Mice in each group were selected randomly, and excised tumors for pathological analysis. In order to investigate the biological safety of this PDT method, after the treatment, the main organs (heart, liver, spleen, lung, kidney) of each group of differently treated mice were dissected, and H&E section staining was performed to evaluate their Pathological changes."}, "[4]": {"assay": "Biological safety in the PDT study (body weight, H&E of main organs)", "assay_type": "in vivo, Balb/c mice", "settings": "for Mouse body weight change: all treatment groups with or without light, 2 mg/kg i.v., n = 5", "protocol": "as §2"}, "4T1 cells [5]": {"tested_on": "4T1 cells", "assay": "Apoptosis/necrosis by flow cytometry after TPDT", "assay_type": "cell-based, murine", "settings": "500 nM, 4 h incubation, with light", "protocol": "The apoptosis rate and necrosis rate of the cells were detected on the flow cytometer according to the operating procedure of the apoptosis detection kit. 4T1 cells were seeded in a six-well plate at a density of 5 * 10^5 cells/well overnight. On the second day, the medium was changed to DMEM medium containing 500 nM RSP/SC and 1% CEL, and the cells were incubated for 4 h. Then the medium was replaced with fresh DMEM. The cells were applied light/ no light, and then digested."}, "[6]": {"assay": "Photostability under laser irradiation", "assay_type": "physicochemical", "settings": "4 mins of laser irradiation, 225 mW/cm^2, UV-vis absorption", "protocol": "In order to better simulate the situation of photosensitive molecules in practical applications, the singlet oxygen yield of RSP in physiological saline containing 1% CEL was measured (Fig. 2c). The slope of RSP and SC was 0.06481 and 0.07165 respectively (Supplementary Fig. 6). […] We further determined the photostability of RSP. […] The axial modification of RSP helped to improve the stability of the phthalocyanine parent ring when singlet oxygen was generated, so that it was less prone to degrade."}, "[7]": {"assay": "Solubility and aggregation state (absorption spectra)", "assay_type": "physicochemical", "from_the_text": "Therefore, we dissolved RSP in physiological saline containing 1% CEL, DMEM medium containing 0.05% CEL, and DMF (as a control) to measure its absorption and fluorescence spectrum. […] RSP had the characteristics of not being aggregated in physiological saline and cell culture media, which provides a basis for further investigation of its phototoxicity."}, "[8]": {"assay": "Blood circulation dynamics and organ distribution", "assay_type": "in vivo, Balb/c mice", "protocol": "The ideal targeted photosensitizer should be able to quickly accumulate at the tumor site and metabolize from normal organs after injection. […] After 24 h, 48 h, and 120 h of RSP injection, the major organs of the mice were dissected and their fluorescence was quantified.\nIn order to investigate the blood clearance rate of RSP, healthy male Balb/c mice were selected as experimental subjects, and blood was collected from the orbit to detect the drug concentration in the body at different time points. Fluorescence labeled Organism Bioimaging Instrument (FOBI, South Korea) was used to measure the relative concentration of phthalocyanine in mouse plasma. Mice were injected with RSP through the tail vein at a dose of 2 mg/kg. At different time intervals, blood samples were collected from the orbits of mice with capillary tubes coated with heparin, placed on ice, and centrifugated to separate blood cells (3000 g, 10 min). The resulting plasma samples were analyzed for phthalocyanine concentration."}, "4T1 tumor": {"tested_on": "4T1 tumor", "assay": "In vivo fluorescence imaging of tumor targeting", "design": "species or system Balb/c mice", "protocol": "as §1\nFor in vivo fluorescence imaging, RSP or SC dissolved in physiological saline (containing 1% CEL) was injected intravenously at a dose of 2 mg/kg into tumor-bearing mice (both in situ and subcutaneous models). Then IVIS Spectrum In Vivo Imaging System (PerkinElmer) was utilized to collect the fluorescence signals of RSP (660 nm/710 nm) in subcutaneous models at different times after the injection. The small animal fluorescence imaging system was used for in situ tumor-bearing mice imaging, taking pictures, and recording. The excitation wavelength was 660 nm, and the fluorescence signal was collected with a 700 nm filter. Then, the FOBI software was used to process the data to analyze the enrichment of phthalocyanines in the tumors of the mice after different injection times. The mice after 24 h fluorescence imaging were sacrificed, and the hearts, livers, spleens, lungs, kidneys, and tumors were collected for analysis of fluorescence semiquantitative biodistribution."}, "[9]": {"settings": "subcutaneous tumor model, 2 mg/kg tail vein, n = 3"}, "[10]": {"settings": "RSP + light (RSPL), tumor sections, n = 3"}}, "data": [{"compound": "2[4-(3-carboxypropyl)phenoxy]silicon phthalocyanine [SC]", "values": [{"measurement": "Dark toxicity: cell viability without light", "setting": "4T1 cells [1]", "value": "did no significantly decreased"}, {"measurement": "Lysosomal colocalization index (Pearson co-localization coefficient)", "setting": "4T1 cells [2]", "value": 0.38}, {"measurement": "Slope of DPBF bleaching (singlet oxygen yield)", "setting": "[3]", "value": 0.07165}, {"measurement": "Tumor volume without light versus PBS and Light groups", "setting": "4T1 tumor model; 2 mg/kg i.v., n = 5", "value": "no significant difference"}, {"measurement": "Inhibition of tumor cell proliferation with light, in words", "setting": "4T1 tumor model; SC + light, 2 mg/kg i.v., 671 nm laser 36 J/cm^2, tumor weight, n = 5", "value": "not significantly inhibited"}, {"measurement": "Mouse body weight change", "setting": "[4]", "value": "no significant changes"}]}, {"compound": "N=C(N)NCCC[C@@H]1NC(=O)[C@H](CCCCNC(=O)CCc2ccc(O[Si]3(Oc4ccc(CCC(=O)O)cc4)n4c5c6ccccc6c4N=C4N=C(N=c6c7ccccc7c(n63)=NC3=NC(=N5)c5ccccc53)c3ccccc34)cc2)NC(=O)[C@@H](Cc2ccc(O)cc2)NC(=O)[C@H](CC(=O)O)NC(=O)CNC1=O", "note": "(stereo partly shown) [RSP, cRGDyK modified targeting silicon phthalocyanine]", "values": [{"measurement": "Dark toxicity: cell viability without light", "setting": "4T1 cells [1]", "value": "did no significantly decreased"}, {"measurement": "Killing effect upon exposure to light compared with SC", "setting": "4T1 cells [1]; λ > 610 nm, 48 J/cm^2, 0 to 2 μM", "value": "lower killing effect"}, {"measurement": "Increase of apoptotic rate compared with SC", "setting": "4T1 cells [5]", "value": 9.73, "unit": "%"}, {"measurement": "Lysosomal colocalization index (Pearson co-localization coefficient)", "setting": "4T1 cells [2]", "value": 0.78}, {"measurement": "Decrease of singlet oxygen yield relative to SC", "setting": "[3]", "value": 10, "unit": "%"}, {"measurement": "Slope of DPBF bleaching (singlet oxygen yield)", "setting": "[3]", "value": 0.06481}, {"measurement": "Absorbance at maximum absorption wavelength remaining after irradiation (photostability)", "setting": "[6]", "value": "about 80%"}, {"measurement": "Solubility in aqueous solutions with Cremophor EL", "setting": "[7]; aqueous solutions with 1 % Cremophor EL (CEL)", "value": "good solubility"}, {"measurement": "Aggregation state from absorption spectra", "setting": "[7]; physiological saline containing 1% CEL and DMEM medium containing 0.05% CEL, compared with DMF", "value": "remained monomer"}, {"measurement": "Solubility in pure water", "setting": "[7]; pure water", "value": "limited solubility"}, {"measurement": "Elimination half-time (t1/2β)", "setting": "[8]; healthy male Balb/c mice, 2 mg/kg tail vein, plasma fluorescence (FOBI)", "value": 463.02, "unit": "min"}, {"measurement": "Fluorescence of main organs 120 h after injection", "setting": "[8]; mice, 2 mg/kg intravenous, 120 h, n = 3", "value": "no obvious fluorescent signal can be detected"}, {"measurement": "Fraction metabolized in 48 h", "setting": "[8]; mice, 2 mg/kg intravenous, fluorescence of main organs, n = 3", "value": "more than 90%"}, {"measurement": "Fluorescence signal of excised tumor, relative to SC (semiquantitative)", "setting": "4T1 tumor; organs and tumors dissected 24 h after injection, 2 mg/kg, n = 3", "value": "four folds higher than that of SC"}, {"measurement": "Fluorescence intensity in orthotopic mouse tumors, folds of control", "setting": "4T1 tumor; orthotopic mouse tumors, as worded in the introduction", "value": 4, "unit": "folds"}, {"measurement": "Onset of tumor accumulation after injection", "setting": "4T1 tumor; [9]", "value": "≤ 0.5", "unit": "h"}, {"measurement": "Time of peak tumor fluorescence intensity after injection", "setting": "4T1 tumor; [9]", "value": 6, "unit": "h"}, {"measurement": "Fluorescence intensity of tumor site in vivo, folds of SC", "setting": "4T1 tumor; subcutaneous tumor model, 2 mg/kg, 24 h after injection, n = 3", "value": 2.5, "unit": "folds"}, {"measurement": "Tumor volume without light versus PBS and Light groups", "setting": "4T1 tumor model; 2 mg/kg i.v., n = 5", "value": "no significant difference"}, {"measurement": "Apoptosis in tumor tissue (TUNEL) relative to SCL group", "setting": "4T1 tumor model; [10]", "value": "twice that of SCL group"}, {"measurement": "Ki67 proliferation signal as % of PBS control group", "setting": "4T1 tumor model; [10]", "value": 10, "unit": "%"}, {"measurement": "Ki67 proliferation signal as fraction of SCL group", "setting": "4T1 tumor model; [10]", "value": "1/4"}, {"measurement": "H&E pathology of heart, liver, spleen, lung and kidney", "setting": "[4]; after treatment, RSP injection and laser irradiation", "value": "no obvious pathological phenomena"}, {"measurement": "Mouse body weight change", "setting": "[4]", "value": "no significant changes"}, {"measurement": "plasma half-life (t1/2α)", "value": 45, "unit": "min"}]}]}
